Data from ChEMBL document CHEMBL1133799, “A disubstituted NAD+ analogue is a nanomolar inhibitor of trypanosomal glyceraldehyde-3-phosphate dehydrogenase” (Bioorg Med Chem Lett, 2001).

What was measured:
[1] = tested on: COc1cccc(C(=O)N[C@@H]2[C@H](O)[C@@H](CO)O[C@H]2n2cnc3c(NCc4cccc5ccccc45)ncnc32)c1
Description: Binding affinity for NAD- in human glyceraldehyde-3-phosphate dehydrogenase (GAPDH)

Glyceraldehyde-3-phosphate dehydrogenase (Homo sapiens), P04406, sequence (P04406 whole entry): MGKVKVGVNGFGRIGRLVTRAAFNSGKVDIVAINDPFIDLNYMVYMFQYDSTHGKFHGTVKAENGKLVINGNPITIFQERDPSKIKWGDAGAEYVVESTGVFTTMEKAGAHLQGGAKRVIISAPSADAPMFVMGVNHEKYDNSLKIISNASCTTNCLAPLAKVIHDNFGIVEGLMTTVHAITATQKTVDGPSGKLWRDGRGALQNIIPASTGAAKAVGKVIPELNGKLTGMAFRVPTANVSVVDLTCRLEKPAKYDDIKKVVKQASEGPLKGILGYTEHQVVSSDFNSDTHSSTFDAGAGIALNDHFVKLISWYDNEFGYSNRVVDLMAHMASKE
Description for Trypanosoma: Binding affinity for NAD- in trypanosomal glyceraldehyde-3-phosphate dehydrogenase (GAPDH)

| Compound | Km (Trypanosoma) [µM] | Km [1] [µM] |
| --- | --- | --- |
| COc1cccc(C(=O)N[C@@H]2[C@H](O)[C@@H](CO)O[C@H]2n2cnc3c(NCc4cccc5ccccc45)ncnc32)c1 | 0.45 | – |
| Glyceraldehyde-3-phosphate dehydrogenase (Homo sapiens), P04406 | – | 0.04 |
